# Assay results as given in article PMC11468294, “Peptide Amphiphiles as Biodegradable Adjuvants for Efficient Retroviral Gene Delivery” (Advanced Healthcare Materials, 2023).
# Where a SMILES comes first, the peptide text is derived from it. Where no end group is shown, it is not given here. The star is where a group is joined. Palmitoyl = CCCCCCCCCCCCCCCC(=O)*; Nonanoyl = CCCCCCCCC(=O)*
# Columns and labels:
# HeLa cells = type: in vitro ADME; conditions: HeLa cells; for degradability (percentual degradation by aggregate number): 2 µg peptide (10 µg mL-1) added to 20,000 cells, 37°C, aggregates > 10 µm2 in 1008 µm × 1008 µm at d3 (72 h) vs d0 (30 min), Proteostat, confocal, three technical replicates; for degradability by cells (in words): 2 µg peptide added to 20,000 cells, d0 (30 min) vs d3, degradable if number and size of aggregates are reduced after 3 days
# Experimental: Confocal laser scanning microscopy and degradation study with PA library and HeLa cells: Confocal laser scanning microscopy studies were performed for the visualization of the cell‐PA interaction. HeLa cells were seeded one day prior to conducting the assay (20000/well) in an 8‐well IBIDI slide. 2 µL of the preformed peptide fibrils (1 mg mL^−1) were diluted with 2 µL Proteostat (Enzo Life Science, 1 µL stock in 99 µL PBS) and incubated for 10 min and further diluted with medium to receive a final peptide concentration of 10 µg mL^−1. The nucleus of the HeLa cells was stained with Hoechst 33 342 (NucBlue, Thermo Fisher Scientific). The peptide solution mixture was transferred to the HeLa cells and incubated for 30 min at 37°C before washing three times with PBS. The interaction of fibril clusters with cells was monitored after 30 min incubation time on a Stellaris 8 confocal laser scanning microscope (Leica) equipped with a 20x air objective and laser excitation wavelengths of 405 nm (Hoechst), and 561 nm (Proteostat). For the evaluation of aggregate degradation, the samples were further incubated at 37°C for 3 d and analyzed without any additional washing step. The evaluation of aggregate size and number was conducted by analyzing Proteostat stained aggregates via the 3D objects counter function of ImageJ 1.53f51 for 3 individual measurements (area 1008 µm × 1008 µm). […] The number of aggregates were determined by counting aggregates larger than the threshold 10 µm^2 in an area of 1008 µm × 1008 µm and repeated in three technical triplicates.
# (§1) 7 Effects of PA modifications on properties and activity
# (§2) To investigate the effects of modification in the PA sequence, we created various peptide amphiphiles derived from PA1 by varying the (I) hydrophobic moiety, (II) the linkage chemistry and (III) the peptide sequence (Figure S12, SI chapter 7.1 – 7.3). The color code for sequence representation is yellow for the hydrophobic moiety, blue for cationic amino acids, red for non-polar amino acids, purple for polar uncharged amino acids, and green for anionic amino acids. To be concise, only the summarized information will be discussed, all original data for the peptides are summarized in the (Figure S26 - […]
# (§3) Figure S12 Summarized overview of peptide amphiphile library in which systematic variations the original sequence […]
# (§4) chemistry and (III) the peptide sequence on infectivity enhancement and degradability (see SI chapter 7.1 – 7.3).
# (§5) In the following section a compound is considered infectivity enhancing if n-fold infectivity at 1.3 µM is larger than 2. A compound is considered to form µm-sized aggregates if visible particles were observed in widefield microscopy (brightfield or ThT-staining filter, objective 10x) or confocal […]
# (§6) than 1000 kcps in Zeta-Potential measurements.
# (§7) For the degradability only the PAs which could be stained with Proteostat (Figure S26) and were visible in microscopy (Figure S15, Figure S18, Figure S21, and Figure S22) were studied in detail. To determine […]
# whether a PA is degraded or not, Proteostat stained PAs which are added to Hela cells (2 µg peptide added to 20.000 cells) and studied via confocal laser scanning microscopy. Microscopy is conducted at day 0 (d0, after 30 min of incubation) and at day 3 (d3, after 72 h of incubation). The number of aggregates >10 µm2 is counted via 3D object counter in ImageJ in an area of 1008 µm × 1008 µm.
# A PA is considered as degradable if the number and the size of aggregates are reduced after 3 days.
# The efficiency is determined by the percentual degradation (aggregate number at d3 / aggregate number at d0). Three technical replicates were evaluated for each sample. A large deviation in number and size of aggregates represents a nonhomogeneous distribution and polymorphism of aggregates.
# [1] = Microscopic aggregation (fluorescence / confocal microscopy, derived count rate); type: physicochemical; conditions: fibrils preformed at 1 mg mL-1 in PBS; ThT or Proteostat stain, widefield or confocal microscopy; derived count rate > 1000 kcps as criterion
# Experimental: Transmission electron microscopy (TEM) measurements, Thioflavin (ThT), zeta‐potential measurements for fibril characterization, ATR‐IR spectra acquisition and the calculation of β−sheet were prepared and conducted analogous to a previous report.^[ [20], [86] ^] […] Fibrils were defined as distinct, if no visible structures could be identified in fluorescence and brightfield microscopy. […] The derived count rate of the zeta‐potential measurement was used as information on the light scattering intensity and turbidity of the sample as a further indicator for microscopic aggregation.^[ [90] ^]
# Fluorescence microscopy: 1 µL Fibrils (1 mg mL^−1) were stained with 9 µL, 50 µM ThT. 10 µL of the stained fibrils (0.1 mg mL^−1) were placed on a microscopy glass. Fluorescence microscopy measurements were performed on a Leica DMi8 microscope with 10x air objective and equipped with a Leica MC170 HD camera with a filter setting λem = 527/30 nm upon excitation at λex = 480/40 nm) and processed with the Leica LASX software.
# as §1, §2, §3, §4, §5, §6, §7
# whether a PA is degraded or not, Proteostat stained PAs which are added to Hela cells (2 µg peptide added to 20.000 cells) and studied via confocal laser scanning microscopy. […]
# In the following, we will distinguish between three aggregation types for fibrillar structures: Fibrils which were not aggregating (below resolution limit of the microscope, approx. 650 nm), moderately aggregating (< 50 µm2) and aggregating to large particles (> 50 µm 2).
# 7.1 Effects of hydrophobic moiety exchange on properties and activity
# To investigate the effects of varying hydrophobic moieties on assembly, aggregation and activity , we
# [2] = system: HIV-1 infection of TZM-bl cells; assay: HIV-1 infection assay (β-galactosidase luminescence reporter); type: cell-based
# Experimental: HIV‐1 Infection Assay: The effect of peptide fibrils on HIV‐1 infection was studied via a luminescence assay for β‐galactosidase, which was reported by TZM‐bl cells upon infection. 10000 TZM‐bl cells were seeded in 180 µl supplemented DMEM one day prior infection. The cells were inoculated with 20 µl PNF solution 1:1 (v/v) mixed with virus (1:500 dilution) after an incubation time of 10 min. The HIV‐1 infection assay was conducted in three technical replicates and repeated in three independent experiments unless stated otherwise. The assay was conducted as described before.^[ [20] ^]
Compound,formation of µm-sized aggregates (in words) [1],degradability by cells (in words) (HeLa cells),other results
CCCCCCCCCCCCCCCC(=O)N[C@@H](CC(C)C)C(=O)N[C@@H](CC(N)=O)C(=O)NCC(=O)NCC(=O)N[C@H](C(=O)N[C@@H](CCCCN)C(=O)N[C@@H](CCCCN)C(N)=O)C(C)C [C16-LNGGVKK-NH2] (Palmitoyl-LNGGVKK-NH2),,,degradability (percentual degradation by aggregate number) (HeLa cells): 48%
CCCCCCCCCCCCCCCC(=O)NCC(=O)N[C@@H](CCCCN)C(=O)N[C@H](C(=O)NCC(=O)N[C@@H](CO)C(=O)N[C@@H](CCCCN)C(N)=O)C(C)C [C16-GKVGSK-NH2] (Palmitoyl-GKVGSK-NH2),cannot form µm‐sized aggregates,,infectivity enhancement of HIV-1 (in words) ([2]; infectivity enhancing if n-fold at 1.3 µM larger than 2): Inactive
C16-disulfide-CVVVAAAKKK-NH2 [PA1 variant with disulfide linker],not forming visible aggregates,,reduction of infectivity enhancement relative to the original amide-linked PA ([2]; n-fold at 1.3 µM): approx. 60%
CCCCCCCCCCCCCCCC(=O)N[C@@H](C)C(=O)N[C@@H](CC(C)C)C(=O)N[C@@H](C)C(=O)N[C@@H](C)C(=O)NCC(=O)N[C@@H](CCCCN)C(=O)N[C@@H](CCCCN)C(N)=O [C16-ALAAGKK-NH2] (Palmitoyl-ALAAGKK-NH2),,,degradability (percentual degradation by aggregate number) (HeLa cells): 87%
"C16-AQAKAK [library peptide amphiphile, palmitic acid at the N-terminus]",very large aggregates,degraded incompletely,
CCCCCCCCCCCCCCCC(=O)N[C@@H](CCCCN)C(=O)N[C@@H](Cc1ccc(O)cc1)C(=O)N[C@H](C(=O)N[C@@H](Cc1c[nH]cn1)C(=O)N[C@@H](CCC(N)=O)C(=O)N[C@@H](CC(N)=O)C(=O)N[C@@H](Cc1ccc(O)cc1)C(=O)N[C@H](C(=O)N[C@@H](CCCCN)C(=O)N[C@@H](C)C(=O)N[C@@H](CC(C)C)C(=O)N[C@@H](C)C(=O)NCC(=O)N[C@@H](CCCCN)C(=O)N[C@@H](CC(C)C)C(=O)N[C@H](C(N)=O)C(C)C)[C@@H](C)O)[C@@H](C)CC (Palmitoyl-KYIHQNYTKALAGKLV-NH2),very large aggregates,degraded incompletely,
NFYLQVNKINK-NH2,,no good degradability,
CCCCCCCCCCCCCCCC(=O)N[C@@H](CCCCN)C(=O)N[C@H](C(=O)N[C@H](C(=O)N[C@@H](CO)C(=O)N[C@@H](Cc1ccccc1)C(=O)N[C@@H](CCCCN)C(N)=O)[C@@H](C)CC)[C@@H](C)CC [C16-KIISFK-NH2] (Palmitoyl-KIISFK-NH2),very large aggregates,degraded incompletely,
C16‐thioester‐CVVVAAAKKK‐NH2 [PA1 variant with thioester linker],"small, well distributed aggregates",,degradability (percentual degradation by aggregate number) (HeLa cells): 87%
CCCCCCCCCCCCCCCC(=O)N[C@@H](C)C(=O)N[C@H](C(=O)N[C@@H](C)C(=O)N[C@@H](CCCCN)C(=O)N[C@@H](CCCCN)C(=O)N[C@@H](CCCCN)C(N)=O)C(C)C [C16-AVAKKK-NH2] (Palmitoyl-AVAKKK-NH2),"not forming µm-sized aggregates and forming too few/less aggregates, respectively",,
CCCCCCCCCCCCCCCC(=O)N[C@H](C(=O)N[C@H](C(=O)N[C@@H](C)C(=O)N[C@@H](C)C(=O)N[C@@H](Cc1c[nH]cn1)C(=O)N[C@@H](Cc1c[nH]cn1)C(=O)N[C@@H](Cc1c[nH]cn1)C(N)=O)C(C)C)C(C)C [C16-VVAAHHH-NH2] (Palmitoyl-VVAAHHH-NH2),very large aggregates,"increase in size, decrease in number",
CCCCCCCCC(=O)N[C@H](C(=O)N[C@H](C(=O)N[C@H](C(=O)N[C@@H](C)C(=O)N[C@@H](C)C(=O)N[C@@H](C)C(=O)N[C@@H](CCCCN)C(=O)N[C@@H](CCCCN)C(=O)N[C@@H](CCCCN)C(N)=O)C(C)C)C(C)C)C(C)C [C9] (Nonanoyl-VVVAAAKKK-NH2),,"reduced in number of aggregates, but increases in size",
CCCCCCCCCCCCCCCC(=O)N[C@@H](CC(N)=O)C(=O)N[C@@H](Cc1ccccc1)C(=O)N[C@@H](Cc1ccc(O)cc1)C(=O)N[C@@H](CC(C)C)C(=O)N[C@@H](CCC(N)=O)C(=O)N[C@H](C(=O)N[C@@H](CC(N)=O)C(=O)N[C@@H](CCCCN)C(=O)N[C@H](C(=O)N[C@@H](CC(N)=O)C(=O)N[C@@H](CCCCN)C(N)=O)[C@@H](C)CC)C(C)C (Palmitoyl-NFYLQVNKINK-NH2),very large aggregates,degraded incompletely,
CCCCCCCCCCCCCCCC(=O)N[C@@H](C)C(=O)N[C@@H](CCCCN)C(=O)N[C@@H](C)C(=O)N[C@H](C(=O)NCC(=O)N[C@@H](CCCCN)C(N)=O)C(C)C [C16-AKAVGK-NH2] (Palmitoyl-AKAVGK-NH2),,,degradability (percentual degradation by aggregate number) (HeLa cells): 89%
CCCCCCCCCCCCCCCC(=O)OC[C@H](N)C(=O)N[C@H](C(=O)N[C@H](C(=O)N[C@H](C(=O)N[C@@H](C)C(=O)N[C@@H](C)C(=O)N[C@@H](C)C(=O)N[C@@H](CCCCN)C(=O)N[C@@H](CCCCN)C(=O)N[C@@H](CCCCN)C(N)=O)C(C)C)C(C)C)C(C)C (H-S(Palmitoyl)VVVAAAKKK-NH2),,degraded well,
CCCCCCCCCCCCCCCC(=O)N[C@@H](C)C(=O)N[C@@H](C)C(=O)N[C@H](C(=O)N[C@H](C(=O)N[C@@H](Cc1c[nH]cn1)C(=O)N[C@@H](Cc1c[nH]cn1)C(=O)N[C@@H](CCCCN)C(N)=O)C(C)C)C(C)C [C16-AAVVHHK-NH2] (Palmitoyl-AAVVHHK-NH2),very large aggregates,degraded incompletely,
